In patent US11058678B2 (Enanta Pharmaceuticals, Inc., priority 2018, dated 2021) one finds EC50 and CC50 data, which are given here for 24 compounds.

By EC50 is commonly meant the concentration needed to bring the measured effect to its halfway point. Read a low EC50 as a more potent agent. In general, CC50 refers to the concentration that lowers cell viability or growth by half. A higher CC50 goes with better tolerance by the cells.

The subject of one series is HBV (2.2.15 cells). Description: Antiviral activity in 2.2.15 cells: reduction of viral product accumulation (qPCR of lysates, HBsAg or HBeAg ELISA). It is filed as cell-based, hepatitis B virus (HBV). The settings on record: Hepatitis B virus, 120 h, day 5 post treatment, 50% reduction of viral product accumulation in lysates or supernatants vs no drug controls, readout (qPCR, HBsAg, HBeAg) not specified. The essentials:
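HBV-producing 2.2.15 cells, 35,000/well, treated with 5-fold serial compound dilutions at 0.5% final DMSO for 5 days. Lysate HBV DNA by qPCR or supernatant HBsAg/HBeAg by ELISA; EC50 is 50% reduction versus no-drug control, binned A<0.1 μM, B 0.1-1 μM, C>1 μM.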

A short description of series [1]: Compound induced cellular toxicity in HepG2 cells (ATPlite 1 Step). It is filed as cell-based. The following applies: human, three days, 50% reduction of total ATP levels vs no drug controls. Here is the method:
At day 3, post seeding cells are treated with ATPlite 1 Step according to the manufacturer's instructions.
In general terms: In ATP-based viability assays light output follows the ATP content of the culture.

On to `CC(C)(C)[C@@H]1Cc2c(cc(-c3cccs3)c3c2CCO3)-c2cc(=O)c(C(=O)O)cn21` [Example 86, (S)-5-(tert-butyl)-9-oxo-12-(thiophen-2-yl)-2,3,4,9-tetrahydro-5H-furo[3,2-f]pyrido[2,1-a]isoquinoline-8-carboxylic Acid], for which the EC50 with HBV (2.2.15 cells) is below 100 nM. This compound also yielded a CC50 at 3 days in series [1] below 10000 nM.
Consider `COCCCOc1cc2c(cc1-c1ccoc1)-c1cc(=O)c(C(=O)O)cn1[C@H](C(C)(C)C)C2` [Example 2, (S)-6-(tert-butyl)-10-(furan-3-yl)-9-(3-methoxypropoxy)-2-oxo-6,7-dihydro-2H-pyrido[2,1-a]isoquinoline-3-carboxylic Acid], for which the EC50 in the series on HBV (2.2.15 cells) was below 100 nM. Also, the CC50 at 3 days in series [1] is above 25000 nM.
For the compound `COCCCOc1cc2c(cc1-c1ccc(C)o1)-c1cc(=O)c(C(=O)O)cn1[C@H](C(C)(C)C)C2` [Example 1, (S)-6-(tert-butyl)-9-(3-methoxypropoxy)-10-(5-methylfuran-2-yl)-2-oxo-6,7-dihydro-2H-pyrido[2,1-a]isoquinoline-3-carboxylic Acid], the EC50 with HBV (2.2.15 cells) is below 100 nM. This compound had a CC50 at 3 days in series [1] above 25000 nM.
In the series with HBV (2.2.15 cells), `COCCCOc1cc2c(cc1-c1cc3ccccc3[nH]1)-c1cc(=O)c(C(=O)O)cn1[C@H](C(C)(C)C)C2` [Example 19, (S)-6-(tert-butyl)-10-(1H-indol-2-yl)-9-(3-methoxypropoxy)-2-oxo-6,7-dihydro-2H-pyrido[2,1-a]isoquinoline-3-carboxylic Acid] yielded an EC50 of 100 to 1000 nM. The compound also gave a CC50 at 3 days in series [1] above 25000 nM.
The like results for `COCCCOc1cc2c(cc1-c1cccc(OC)c1)-c1cc(=O)c(C(=O)O)cn1[C@H](C(C)(C)C)C2` [Example 16, (S)-6-(tert-butyl)-10-(3-methoxyphenyl)-9-(3-methoxypropoxy)-2-oxo-6,7-dihydro-2H-pyrido[2,1-a]isoquinoline-3-carboxylic Acid] were, in that order, below 100 nM and 10000 to 25000 nM.
Compound `COCCCOc1cc2c(cc1-c1cnco1)-c1cc(=O)c(C(=O)O)cn1[C@H]1[C@@H]2CCC1(C)C` [Example 63, (3aS,12bR)-11-(3-methoxypropoxy)-3,3-dimethyl-10-(oxazol-5-yl)-7-oxo-1,2,3,3a,7,12b-hexahydrocyclopenta[c]pyrido[2,1-a]isoquinoline-6-carboxylic Acid] had an EC50 in the series on HBV (2.2.15 cells) below 100 nM. The CC50 at 3 days in series [1] fell in the range of 10000 to 25000 nM.
Regarding `COCCCOc1cc2c(cc1-c1cc[nH]c1)-c1cc(=O)c(C(=O)O)cn1[C@H](C(C)(C)C)C2` [Example 11, (S)-6-(tert-butyl)-9-(3-methoxypropoxy)-2-oxo-10-(1H-pyrrol-3-yl)-6,7-dihydro-2H-pyrido[2,1-a]isoquinoline-3-carboxylic Acid], in the series on HBV (2.2.15 cells), the EC50 was below 100 nM. Moreover, the CC50 at 3 days in series [1] is above 25000 nM.
Turning to `COCCCOc1cc2c(cc1-c1ccccc1F)-c1cc(=O)c(C(=O)O)cn1[C@H](C(C)(C)C)C2` [Example 13, (S)-6-(tert-butyl)-10-(2-fluorophenyl)-9-(3-methoxypropoxy)-2-oxo-6,7-dihydro-2H-pyrido[2,1-a]isoquinoline-3-carboxylic Acid], the EC50 with HBV (2.2.15 cells) was below 100 nM. The CC50 at 3 days in series [1] was 10000 to 25000 nM.
The compound `CC(C)(C)[C@@H]1Cc2c(cc(-c3ccccc3F)c3c2CCO3)-c2cc(=O)c(C(=O)O)cn21` [Example 66, (S)-5-(tert-butyl)-12-(2-fluorophenyl)-9-oxo-2,3,4,9-tetrahydro-5H-furo[3,2-f]pyrido[2,1-a]isoquinoline-8-carboxylic Acid] yielded an EC50 in the series with HBV (2.2.15 cells) below 100 nM. Also, the CC50 at 3 days in series [1] is below 10000 nM.
For `CC(C)(C)[C@@H]1Cc2c(cc(-c3ccc(F)cc3)c3c2CCO3)-c2cc(=O)c(C(=O)O)cn21` [Example 62, (S)-5-(tert-butyl)-12-(4-fluorophenyl)-9-oxo-2,3,4,9-tetrahydro-5H-furo[3,2-f]pyrido[2,1-a]isoquinoline-8-carboxylic Acid], the EC50 with HBV (2.2.15 cells) is below 100 nM. Further, the CC50 at 3 days in series [1] was below 10000 nM.
`COCCCOc1cc2c(cc1-c1ccc3c(c1)OCCN3C)-c1cc(=O)c(C(=O)O)cn1[C@H](C(C)(C)C)C2` [Example 24, (S)-6-(tert-butyl)-9-(3-methoxypropoxy)-10-(4-methyl-3,4-dihydro-2H-benzo[b][1,4]oxazin-7-yl)-2-oxo-6,7-dihydro-2H-pyrido[2,1-a]isoquinoline-3-carboxylic Acid] registered an EC50 in the series with HBV (2.2.15 cells) of 100 to 1000 nM. In series [1], this compound gave a CC50 at 3 days above 25000 nM.
`COCCCOc1cc2c(cc1-c1cnco1)-c1cc(=O)c(C(=O)O)cn1[C@H](C(C)(C)C)C2` [Example 6, (S)-6-(tert-butyl)-9-(3-methoxypropoxy)-10-(oxazol-5-yl)-2-oxo-6,7-dihydro-2H-pyrido[2,1-a]isoquinoline-3-carboxylic Acid] showed an EC50 in the series with HBV (2.2.15 cells) below 100 nM. In series [1], this compound came in with a CC50 at 3 days above 25000 nM.
`COCCCOc1cc2c(cc1-c1c(C)oc3ccccc13)-c1cc(=O)c(C(=O)O)cn1[C@H](C(C)(C)C)C2` [Example 21, (S)-6-(tert-butyl)-9-(3-methoxypropoxy)-10-(2-methylbenzofuran-3-yl)-2-oxo-6,7-dihydro-2H-pyrido[2,1-a]isoquinoline-3-carboxylic Acid]: in the series with HBV (2.2.15 cells), the EC50 lay in the range of 100 to 1000 nM. The CC50 at 3 days in series [1] was above 25000 nM.
The like results for `COCCCOc1cc2c(cc1-c1nc3ccccc3o1)-c1cc(=O)c(C(=O)O)cn1[C@H](C(C)(C)C)C2` [Example 25, (S)-10-(benzo[d]oxazol-2-yl)-6-(tert-butyl)-9-(3-methoxypropoxy)-2-oxo-6,7-dihydro-2H-pyrido[2,1-a]isoquinoline-3-carboxylic Acid] were, in that order, 100 to 1000 nM and above 25000 nM.
Consider `COCCCOc1cc2c(cc1-c1cnn(C)c1)-c1cc(=O)c(C(=O)O)cn1[C@H](C(C)(C)C)C2` [Example 4, (S)-6-(tert-butyl)-9-(3-methoxypropoxy)-10-(1-methyl-1H-pyrazol-4-yl)-2-oxo-6,7-dihydro-2H-pyrido[2,1-a]isoquinoline-3-carboxylic Acid], for which the EC50 in the series with HBV (2.2.15 cells) is below 100 nM. In series [1], this compound showed a cytotoxic concentration (CC50) at 3 days above 25000 nM.
The corresponding values for `CC(C)(C)[C@@H]1Cc2c(cc(-c3ccoc3)c3c2CCO3)-c2cc(=O)c(C(=O)O)cn21` [Example 64, (S)-5-(tert-butyl)-12-(furan-3-yl)-9-oxo-2,3,4,9-tetrahydro-5H-furo[3,2-f]pyrido[2,1-a]isoquinoline-8-carboxylic Acid] are below 100 nM and below 10000 nM.
Turning to `COCCCOc1cc2c(cc1-c1cc3ccccc3o1)-c1cc(=O)c(C(=O)O)cn1[C@H](C(C)(C)C)C2` [Example 9, (S)-10-(benzofuran-2-yl)-6-(tert-butyl)-9-(3-methoxypropoxy)-2-oxo-6,7-dihydro-2H-pyrido[2,1-a]isoquinoline-3-carboxylic Acid], the EC50 in the series on HBV (2.2.15 cells) is below 100 nM. Further, the CC50 at 3 days in series [1] is above 25000 nM.
Turning to `COCCCOc1cc2c(cc1-c1ccnn1C)-c1cc(=O)c(C(=O)O)cn1[C@H](C(C)(C)C)C2` [Example 18, (S)-6-(tert-butyl)-9-(3-methoxypropoxy)-10-(1-methyl-1H-pyrazol-5-yl)-2-oxo-6,7-dihydro-2H-pyrido[2,1-a]isoquinoline-3-carboxylic Acid], the concentration for a half-maximal effect (EC50) with HBV (2.2.15 cells) is below 100 nM. Also, the CC50 at 3 days in series [1] was above 25000 nM.
With `COCCCOc1cc2c(cc1-c1ccco1)-c1cc(=O)c(C(=O)O)cn1[C@H](C(C)(C)C)C2` [Example 7, (S)-6-(tert-butyl)-10-(furan-2-yl)-9-(3-methoxypropoxy)-2-oxo-6,7-dihydro-2H-pyrido[2,1-a]isoquinoline-3-carboxylic Acid], in the series with HBV (2.2.15 cells), the EC50 is below 100 nM. In series [1], this compound registered a CC50 at 3 days above 25000 nM.
The like results for `COCCCOc1cc2c(cc1-n1cccn1)-c1cc(=O)c(C(=O)O)cn1[C@H](C(C)(C)C)C2` [Example 28, (S)-6-(tert-butyl)-9-(3-methoxypropoxy)-2-oxo-10-(1H-pyrazol-1-yl)-6,7-dihydro-2H-pyrido[2,1-a]isoquinoline-3-carboxylic Acid] were, in that order, 100 to 1000 nM and above 25000 nM.
Consider `COCCCOc1cc2c(cc1-c1ccoc1)-c1cc(=O)c(C(=O)O)cn1[C@H]1[C@@H]2CCC1(C)C` [Example 60, (3aS,12bR)-10-(furan-3-yl)-11-(3-methoxypropoxy)-3,3-dimethyl-7-oxo-1,2,3,3a,7,12b-hexahydrocyclopenta[c]pyrido[2,1-a]isoquinoline-6-carboxylic Acid], for which, in the series with HBV (2.2.15 cells), the concentration giving a half-maximal response (EC50) is below 100 nM. This compound had a CC50 at 3 days in series [1] of 10000 to 25000 nM.
Turning to `COCCCOc1cc2c(cc1-c1cccs1)-c1cc(=O)c(C(=O)O)cn1[C@H](C(C)(C)C)C2` [Example 8, (S)-6-(tert-butyl)-9-(3-methoxypropoxy)-2-oxo-10-(thiophen-2-yl)-6,7-dihydro-2H-pyrido[2,1-a]isoquinoline-3-carboxylic Acid], the EC50 in the series with HBV (2.2.15 cells) is below 100 nM. For the same compound, the CC50 at 3 days in series [1] lay in the range of 10000 to 25000 nM.
As for `COCCCOc1cc2c(cc1-c1cnc3ccccc3c1)-c1cc(=O)c(C(=O)O)cn1[C@H](C(C)(C)C)C2` [Example 12, (S)-6-(tert-butyl)-9-(3-methoxypropoxy)-2-oxo-10-(quinolin-3-yl)-6,7-dihydro-2H-pyrido[2,1-a]isoquinoline-3-carboxylic Acid], the EC50 in the series on HBV (2.2.15 cells) is below 100 nM. This compound displayed a CC50 at 3 days in series [1] above 25000 nM.
For the compound `COCCCOc1cc2c(cc1-c1cnnn1C)-c1cc(=O)c(C(=O)O)cn1[C@H](C(C)(C)C)C2` [Example 48, (S)-6-(tert-butyl)-9-(3-methoxypropoxy)-10-(1-methyl-1H-1,2,3-triazol-5-yl)-2-oxo-6,7-dihydro-2H-pyrido[2,1-a]isoquinoline-3-carboxylic Acid], the EC50 in the series with HBV (2.2.15 cells) is below 100 nM.
